Here are results for twelve compounds from ChEMBL document CHEMBL1201862, “PubChem BioAssay data set” (2004).

The structures appear in SMILES notation.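 Following 48 hours of exposure in 96-well plates, responses at five concentrations were used to interpolate endpoints linearly. GI50 = concentration required for 50% inhibition of growth.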 Activity calls are given as the source filed them. Cut-off read from the data, not from the text of the source: active = GI50 up to about 1.1 µM and inactive = higher.

Test systems include IGROV-1; HCT-15; A498; UACC-257; TK-10; SK-MEL-28; K562; BT-549; NCI/ADR-RES; HCC 2998; OVCAR-4; Malme-3M; DU-145; ACHN; MDA-N; MOLT-4; T47D; EKVX; LOX IMVI; SNB-78.
Assay in all cases: growth of human tumour cells (NCI), 48 h

As for `O=C1Oc2ccccc2C(=O)/C1=C/N1C(=O)N/C(=C\c2ccccc2O)C1=O`, the GI50 was 48.8 µM (inactive) in the assay on IGROV-1; 39.8 µM in the assay on HCT-15; 42.6 µM (inactive) with A498; 67.5 µM (inactive) with UACC-257; 60.5 µM (inactive) in the assay on TK-10; > 84.9 µM (inactive) in the assay with SK-MEL-28. Further, the GI50 was 54.7 µM (inactive) in the assay on K562; 45.4 µM (inactive) with BT-549; 65.3 µM (inactive) in the assay with NCI/ADR-RES; > 57.4 µM (inactive) with HCC 2998; 55.3 µM (inactive) with OVCAR-4; > 100 µM (inactive) in the assay on Malme-3M. Besides, the GI50 with DU-145 is 46.3 µM (inactive); in the assay on ACHN, 47.6 µM (inactive); in the assay with MDA-N it was 60.7 µM (inactive); in the assay with MOLT-4 it was 41.2 µM (inactive); in the assay on T47D, 34.2 µM (inactive); in the assay on EKVX, > 67.8 µM (inactive). In addition, in the assay on LOX IMVI, the GI50 was 34.1 µM (inactive).

For the compound `C=C(C)C12CC3CC(/C(=N/O)C(C1)/C3=N\O)[C@@]2(C)O` (some centres not stated), the GI50 in the assay with IGROV-1 was > 100 µM (inactive); with HCT-15 it was more than 100 µM; in the assay with UACC-257 it was > 100 µM (inactive); in the assay on TK-10, > 100 µM (inactive); with SK-MEL-28, > 100 µM (inactive); in the assay on K562 it was > 100 µM (inactive). Also, the GI50 in the assay with HCC 2998, in the assay with Malme-3M, in the assay with ACHN, with MOLT-4, in the assay with EKVX and in the assay with LOX IMVI was > 100 µM (inactive) each time. In addition, the GI50 in the assay with SNB-78 was > 100 µM (inactive).

As to `Cc1ccc(C2=Nn3c(nc4sc5c(c4c3=O)CCCC5)SC2)cc1`, the GI50 in the assay with IGROV-1 was > 100 µM (inactive); in the assay on HCT-15, more than 100 µM; in the assay with A498, > 100 µM (inactive); in the assay on UACC-257, > 100 µM (inactive); in the assay with TK-10 it was > 100 µM (inactive); in the assay with SK-MEL-28 it was > 100 µM (inactive). For the same compound, the GI50 in the assay with K562, in the assay with BT-549, with NCI/ADR-RES, with HCC 2998, in the assay on OVCAR-4 and in the assay on Malme-3M was > 100 µM (inactive) in each case. The GI50 in the assay with DU-145, in the assay with ACHN, with MDA-N, with MOLT-4, in the assay with T47D and with EKVX was > 100 µM (inactive) each time. In addition, the GI50 with LOX IMVI is > 100 µM (inactive).

As for `C/C(=C\CBr)CCC(Br)C(C)(C)Cl` (configuration not stated), the GI50 was > 100 µM (inactive) in the assay on IGROV-1; more than 100 µM in the assay on HCT-15; > 100 µM (inactive) in the assay on UACC-257; > 100 µM (inactive) in the assay with TK-10; > 100 µM (inactive) in the assay with SK-MEL-28; > 100 µM (inactive) in the assay on K562. The GI50 with OVCAR-4, in the assay with Malme-3M, with ACHN, in the assay on MOLT-4, in the assay with LOX IMVI and in the assay with SNB-78 was > 100 µM (inactive) throughout.

In the case of `O=S1(=O)c2cnccc2N=C(NCc2cccc3ccccc23)N1c1ccccc1`, the GI50 in the assay with IGROV-1 was > 61.5 µM (inactive); in the assay with HCT-15, 50.1 µM; with A498, > 100 µM (inactive); in the assay on UACC-257 it was > 100 µM (inactive); in the assay with TK-10, 64.9 µM (inactive); in the assay on SK-MEL-28 it was > 100 µM (inactive). For the same compound, the GI50 in the assay on K562 is 29.4 µM (inactive); in the assay with BT-549, > 100 µM (inactive); in the assay on NCI/ADR-RES, 97.5 µM (inactive); in the assay with HCC 2998 it was 38.4 µM (inactive); in the assay on OVCAR-4, > 91.2 µM (inactive); in the assay on Malme-3M it was > 100 µM (inactive). In addition, the GI50 in the assay with DU-145 was > 100 µM (inactive); in the assay on ACHN, 35.9 µM (inactive); in the assay on MDA-N, 13.2 µM (inactive); in the assay with MOLT-4, 12.2 µM (inactive); with T47D it was 54.7 µM (inactive); in the assay on EKVX, 36.4 µM (inactive). Besides, the GI50 in the assay on LOX IMVI is > 96.8 µM (inactive).

With `CC(=O)NN/C=N/C(C#N)=C(\N)C#N`, the GI50 in the assay with IGROV-1 is > 100 µM (inactive); in the assay with HCT-15 it was more than 100 µM; with A498, > 100 µM (inactive); with UACC-257 it was > 100 µM (inactive); with TK-10, > 100 µM (inactive); in the assay on SK-MEL-28, > 100 µM (inactive). Also, the GI50 in the assay on K562, in the assay on BT-549, in the assay with NCI/ADR-RES, in the assay with HCC 2998, with OVCAR-4 and in the assay on Malme-3M was > 100 µM (inactive) each time. For the same compound, the GI50 in the assay with DU-145, in the assay with ACHN, in the assay with MDA-N, in the assay on MOLT-4, with T47D and in the assay with EKVX was > 100 µM (inactive) throughout. Also, the GI50 with LOX IMVI was > 100 µM (inactive).

Consider `COc1cc(Oc2c(O)c(C)c(OC)c(C(C)=O)c2O)c(C(C)=O)c(O)c1C`, for which the GI50 in the assay with IGROV-1 is 67.3 µM (inactive); in the assay with HCT-15 it was 47.6 µM; in the assay on UACC-257, 40.6 µM (inactive); in the assay on TK-10, 49.4 µM (inactive); in the assay with SK-MEL-28, 50.6 µM (inactive); in the assay on HCC 2998, 59 µM (inactive). Also, the GI50 was 45.2 µM (inactive) in the assay on OVCAR-4; 42.8 µM (inactive) in the assay on Malme-3M; 46.5 µM (inactive) with ACHN; 57.3 µM (inactive) with LOX IMVI; > 100 µM (inactive) in the assay on SNB-78.

On to `O=C1C2=Nc3ccccc3C(O)N2c2ccccc21` (configuration not stated), for which the GI50 in the assay with IGROV-1 was 40.2 µM (inactive); in the assay with HCT-15, 16.6 µM; in the assay with A498, 18.7 µM (inactive); with UACC-257 it was 4.09 µM (inactive); with TK-10, > 100 µM (inactive); with SK-MEL-28, 23.4 µM (inactive). The GI50 in the assay with K562 was > 76 µM (inactive); in the assay on BT-549, 28.4 µM (inactive); in the assay with NCI/ADR-RES, 40.3 µM (inactive); in the assay on HCC 2998, 27.2 µM (inactive); in the assay with OVCAR-4 it was > 100 µM (inactive); with Malme-3M, 14.3 µM (inactive). The GI50 with DU-145 was 53.3 µM (inactive); in the assay with ACHN, 5.62 µM (inactive); with MDA-N, 1.84 µM (inactive); in the assay with MOLT-4, > 87.5 µM (inactive); in the assay with T47D it was 37.6 µM (inactive); with EKVX it was 57.9 µM (inactive). In addition, in the assay with LOX IMVI, the GI50 is 2.96 µM (inactive).

As for `CC(=O)O[C@@H]1C[C@]2(C(=O)c3ccccc3)C(=O)C(=O)S[C@]12c1ccccc1`, the GI50 was 45.4 µM (inactive) in the assay with IGROV-1; 32.9 µM in the assay on HCT-15; 40.2 µM (inactive) with A498; 55.8 µM (inactive) in the assay with UACC-257; 55.7 µM (inactive) in the assay on TK-10; 58.3 µM (inactive) in the assay with SK-MEL-28. Further, the GI50 is 24.8 µM (inactive) in the assay with K562; 44.1 µM (inactive) in the assay with BT-549; 41.6 µM (inactive) in the assay with NCI/ADR-RES; 26.7 µM (inactive) with HCC 2998; 56.1 µM (inactive) with OVCAR-4; > 100 µM (inactive) with Malme-3M. In addition, the GI50 was 51.8 µM (inactive) in the assay with DU-145; 62.2 µM (inactive) in the assay with ACHN; 30 µM (inactive) in the assay on MDA-N; 28.4 µM (inactive) in the assay on MOLT-4; 28.3 µM (inactive) with T47D; 52.2 µM (inactive) in the assay on EKVX. The GI50 in the assay on LOX IMVI was 34.3 µM (inactive).

Consider `N#CC(C#N)[C@@H]1CCC=C(Sc2ccccc2)[C@H]1Sc1ccccc1`, for which the GI50 with IGROV-1 was 2.29 µM (inactive); in the assay on HCT-15 it was 2.4 µM; in the assay with A498 it was 13.5 µM (inactive); with UACC-257, 2.26 µM (inactive); in the assay on TK-10, 1.86 µM (inactive); in the assay with SK-MEL-28, 2.72 µM (inactive). The GI50 in the assay with K562 was 2.36 µM (inactive); in the assay on BT-549, 3.23 µM (inactive); in the assay on NCI/ADR-RES, 2.72 µM (inactive); in the assay on HCC 2998 it was 2.86 µM (inactive); in the assay on OVCAR-4, 4.6 µM (inactive); in the assay on Malme-3M, 2.42 µM (inactive). The GI50 is 2.72 µM (inactive) in the assay with DU-145; 2.34 µM (inactive) in the assay on ACHN; 1.32 µM (inactive) in the assay on MDA-N; 2.38 µM (inactive) in the assay on MOLT-4; 1.45 µM (inactive) in the assay with T47D; 4.54 µM (inactive) in the assay with EKVX. The GI50 with LOX IMVI was 2.46 µM (inactive).

Regarding `COc1ccc(C(c2c(O)c3ccccc3n(C)c2=O)c2c(O)c3ccccc3n(C)c2=O)cc1`, the GI50 with IGROV-1 was 71.8 µM (inactive); with HCT-15 it was more than 10 µM; with UACC-257, 19.5 µM (inactive); in the assay with TK-10, 38.2 µM (inactive); with SK-MEL-28, 39.2 µM (inactive); in the assay with K562 it was 27.9 µM (inactive). In addition, the GI50 in the assay on HCC 2998 was 40.2 µM (inactive); in the assay on OVCAR-4, 62.8 µM (inactive); with Malme-3M it was 47.2 µM (inactive); with ACHN it was 46.5 µM (inactive); in the assay with MOLT-4 it was 35.9 µM (inactive); in the assay on EKVX, 34.8 µM (inactive). In addition, the GI50 in the assay with LOX IMVI was 37.2 µM (inactive); in the assay with SNB-78, 7.16 µM (inactive).

With `COc1ccc(-c2oc3c(OC)c(OC)c(OC)c(OC)c3c(=O)c2OC)cc1OC` [3,5,6,7,8,3',4'-HEPTAMETHOXYFLAVONE], the GI50 with IGROV-1 is 30.3 µM (inactive); in the assay with HCT-15 it was 35.9 µM; in the assay with A498, 31 µM (inactive); in the assay on UACC-257, 53.1 µM (inactive); with TK-10, 61 µM (inactive); in the assay on SK-MEL-28 it was 66.7 µM (inactive). The GI50 in the assay on K562 was 31.5 µM (inactive); in the assay with BT-549, 50.7 µM (inactive); in the assay with NCI/ADR-RES it was 20.3 µM (inactive); with HCC 2998, 63.8 µM (inactive); in the assay on OVCAR-4 it was 47.2 µM (inactive); in the assay with Malme-3M, 28 µM (inactive). In addition, the GI50 in the assay on DU-145 was 55.1 µM (inactive); in the assay on ACHN it was 33.5 µM (inactive); in the assay with MDA-N it was 27.6 µM (inactive); in the assay on MOLT-4, 22.4 µM (inactive); with T47D, 22.4 µM (inactive); in the assay with EKVX, 55.7 µM (inactive). The GI50 with LOX IMVI is 27 µM (inactive).
